Results on two compounds are retold here after article doi:10.1101/2022.01.18.476765v1, “How a Formate Dehydrogenase Responds to Oxygen: Unexpected O2 Insensitivity of an Enzyme Harboring Tungstopterin, Selenocysteine, and [4Fe-4S] Clusters” (biorxiv, 2022).

Experiment [1] has as its target T1, DvH-FDH2 (Nitratidesulfovibrio vulgaris, UniProt Q728X0).
T1 construct: gene fdnG-2; heterodimer, W-bis-pyranopterin, Sec, four [4Fe-4S]; Strep-tag II at C-terminus of large subunit, kept; periplasmic, Tat signal peptide on large subunit; homologous expression in DvH JW2127 (all fdh loci deleted), strain CSR21271; aerobic purification; with Formate dehydrogenase, beta (small) subunit, iron-sulfur
T1 sequence (Q728X0 36-1003): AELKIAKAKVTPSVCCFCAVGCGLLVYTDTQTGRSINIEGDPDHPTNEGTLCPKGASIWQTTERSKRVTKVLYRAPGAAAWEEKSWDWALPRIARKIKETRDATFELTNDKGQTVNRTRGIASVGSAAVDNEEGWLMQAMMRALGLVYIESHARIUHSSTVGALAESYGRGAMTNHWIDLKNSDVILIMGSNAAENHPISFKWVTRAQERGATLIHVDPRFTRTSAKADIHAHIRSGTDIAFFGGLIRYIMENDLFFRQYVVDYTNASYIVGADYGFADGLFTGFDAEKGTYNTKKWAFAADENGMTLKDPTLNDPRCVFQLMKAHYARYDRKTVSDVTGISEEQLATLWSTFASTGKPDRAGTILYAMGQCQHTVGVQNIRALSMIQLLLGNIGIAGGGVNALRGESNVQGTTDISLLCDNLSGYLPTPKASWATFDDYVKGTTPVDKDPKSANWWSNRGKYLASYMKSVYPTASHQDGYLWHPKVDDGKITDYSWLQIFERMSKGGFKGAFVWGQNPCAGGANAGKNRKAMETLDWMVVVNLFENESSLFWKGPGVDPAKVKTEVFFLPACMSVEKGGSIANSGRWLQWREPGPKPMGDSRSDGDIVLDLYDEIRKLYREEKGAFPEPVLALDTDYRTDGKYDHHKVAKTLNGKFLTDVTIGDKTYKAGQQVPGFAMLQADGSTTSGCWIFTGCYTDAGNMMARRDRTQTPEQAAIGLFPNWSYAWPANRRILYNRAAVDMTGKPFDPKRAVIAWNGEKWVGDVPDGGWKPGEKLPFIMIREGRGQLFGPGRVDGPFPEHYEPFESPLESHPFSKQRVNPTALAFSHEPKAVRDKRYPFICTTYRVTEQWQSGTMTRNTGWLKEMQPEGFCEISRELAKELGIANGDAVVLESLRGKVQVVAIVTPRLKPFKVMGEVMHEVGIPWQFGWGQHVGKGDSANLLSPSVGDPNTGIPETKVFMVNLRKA
T1 sequence (Q728X1 1-260 partner): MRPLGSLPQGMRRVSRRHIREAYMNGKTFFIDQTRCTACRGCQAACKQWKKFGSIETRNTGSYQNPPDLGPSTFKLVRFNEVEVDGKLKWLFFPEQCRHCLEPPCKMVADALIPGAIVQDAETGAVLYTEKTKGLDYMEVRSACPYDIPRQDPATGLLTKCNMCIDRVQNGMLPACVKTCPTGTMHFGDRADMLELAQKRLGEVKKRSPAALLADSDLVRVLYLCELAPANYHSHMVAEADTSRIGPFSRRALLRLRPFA
Kind of experiment: PES/DCPIP reduction at […] nm, global fit of full progress curves. The conditions noted are these: in air; 1 mM PES / 93 μM DCPIP; 50 mM Tris pH 8.0; Km calculated from kcat and kcat/Km. The experiment is classed as biochemical.

Experiment [2] concerns the target T1, DvH-FDH2. Kind of experiment: PES/DCPIP reduction at […] nm, inhibition of formate oxidation. The class given is biochemical. The conditions noted are these: formate with PES/DCPIP; 50 mM Tris pH 8.0; with and without O2.

As a reminder, the Km is the substrate concentration at which the rate is half of its maximum. Take `O=CO` [formate]: the Km at DvH-FDH2 [1] is 4.5 ± 0.4 µM. Turning to `O=[N+]([O-])O` [nitrate], the inhibition profile entry on DvH-FDH2 [2] was “nitrate is far less effective”.
